Laboratory results as given in PMC8480776, “Selenium Derivatives as Promising Therapy for Chagas Disease: In Vitro and In Vivo Studies” (ACS Infectious Diseases, 2021).
Where two headings read alike, the source gives them in different places.

Experiments:
[1] = tested on: T. cruzi epimastigotes, SN3 strain; test: Screening against extracellular epimastigotes, SN3 strain; format: cell-based, Trypanosoma cruzi
[2] = format: in vivo, BALB/c mice; conditions: variation vs control
Description: (§1) Female BALB/c mice aged 10–12 weeks and with a size of 20–24 g were divided into five groups (n = 3 per group): 0, negative control group (uninfected and untreated mice); I, positive control group (infected and untreated mice); II, BZN group (infected mice treated with BZN); III, 26 group (infected mice treated with 26); and IV, 28 group (infected mice treated with 28).
(§2) The tested selenocompounds and BZN were prepared at 2 mg·mL^–1 in an aqueous suspension vehicle containing 5% (v/v) DMSO and 0.5% (w/v) hydroxypropyl methylcellulose, as previously reported.[52] Compounds (20 mg·kg^–1 per day) were administered for 5 consecutive days (total dosages of 100 mg·kg^–1), and vehicle only was administered in the negative and positive control groups. Treatments began when the infection was confirmed (9 dpi) for acute-phase-treated mice, and when it was established that the animals moved into the chronic phase (100 dpi, for chronic-phase-treated mice; Scheme 1).
Serum samples obtained from blood in several days post-infection (Scheme 1) were sent to the Biochemical Service (University of Granada) to measure a series of biochemical parameters with the commercial Cromakit using a clinical chemistry analyzer (BS-200, Shenzhen Mindray Biomedical Electronics Co., LTD), as previously described.[41]

[3] = tested on: Vero cells; test: Cytotoxicity test on Vero cells; format: cell-based; conditions: Chlorocebus sabaeus, 48 h + 24 h resazurin, read-out: Toxicity IC50 Vero cell
[4] = tested on: T. cruzi amastigotes, Tulahuen strain; test: Screening against intracellular amastigotes, Tulahuen strain; format: cell-based, Trypanosoma cruzi
[5] = tested on: T. cruzi trypomastigotes, SN3 strain; test: Screening against bloodstream trypomastigotes, SN3 strain; format: cell-based, Trypanosoma cruzi
[6] = tested on: T. cruzi amastigotes, SN3 strain; test: Screening against intracellular amastigotes, SN3 strain; format: cell-based, Trypanosoma cruzi
[7] = tested on: Trypanosoma cruzi Fe-SOD; test: SOD enzymatic inhibition, Fe-SOD; format: biochemical
[8] = biological target: T1, human erythrocytes CuZn-SOD (Homo sapiens, UniProt P00441); test: SOD enzymatic inhibition, CuZn-SOD; format: biochemical
T1 construct: commercial copper/zinc superoxide dismutase (Cu/Zn-SOD) from human erythrocytes (Sigma-Aldrich); purchased Sigma-Aldrich; host or cells: human erythrocytes (natural source)
T1 sequence (P00441 whole entry): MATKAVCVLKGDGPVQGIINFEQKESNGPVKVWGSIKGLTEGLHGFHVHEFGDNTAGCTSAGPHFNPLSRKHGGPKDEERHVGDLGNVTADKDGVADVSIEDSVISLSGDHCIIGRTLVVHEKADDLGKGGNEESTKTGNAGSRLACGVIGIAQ

[9] = tested on: Vero cells infected with T. cruzi Arequipa strain; test: Infection rate in Vero cells (infected cells), Arequipa strain; format: cell-based; conditions: Trypanosoma cruzi, 72 h of treatment
[10] = tested on: T. cruzi epimastigotes, Tulahuen strain; test: Screening against extracellular epimastigotes, Tulahuen strain; format: cell-based, Trypanosoma cruzi
[11] = tested on: T. cruzi trypomastigotes, Tulahuen strain; test: Screening against bloodstream trypomastigotes, Tulahuen strain; format: cell-based, Trypanosoma cruzi
[12] = tested on: T. cruzi amastigotes, Arequipa strain; test: Screening against intracellular amastigotes, Arequipa strain; format: cell-based, Trypanosoma cruzi
[13] = tested on: T. cruzi trypomastigotes, Arequipa strain; test: Screening against bloodstream trypomastigotes, Arequipa strain; format: cell-based, Trypanosoma cruzi
[14] = tested on: epimastigotes of T. cruzi Arequipa strain; test: Flow cytometry analysis of nucleic acid levels (acridine orange); format: cell-based, Trypanosoma cruzi; conditions: IC25 concentrations, 72 h
[15] = tested on: T. cruzi Arequipa strain; test: In vivo trypanocidal activity on BALB/c mice (acute and chronic Chagas disease); design: species or system Trypanosoma cruzi
Description: as §1
Mice were infected by intraperitoneal injection of 5 × 10^5 BTs of T. cruzi Arequipa strain per mouse in 200 μL PBS.[42] Subsequently, the treatment was intraperitoneally administered (∼200 μL) once daily for 5 consecutive days.
as §2
[…]. Parasitemia was expressed as parasites·mL^–1.
Immunosuppression was performed by intraperitoneal injection of three doses of 200 mg·kg^–1 of ISOPAC CP at 3–4 day intervals (Scheme 1), as previously reported.[53] Mice were closely monitored for side effects or for secondary infections due to immunosuppression. Within 7 days after the last CP injection, parasitemia reactivation was determined by counting BTs according the procedure described for parasitemia in the acute phase.[42]
On 145 dpi, the mice were euthanized using CO2, followed by exsanguination via cardiac puncture, and blood was collected. […]. In addition, spleens were weighed to assess splenomegaly.[42]
DNA extraction of the post-mortem organs/tissues was performed using Wizard Genomic DNA Purification Kit,[41] and the extracted DNA was subjected to amplification by PCR based on the spliced leader (SL) intergenic region sequence of T. cruzi (for detailed description, see literature reported previously).[55] Finally, the PCR products were resolved by electrophoresis on a 2% agarose gel (containing GelRed nucleic gel stain) for 90 min at 90 V.
Circulating antibodies in serum against both antigens were quantitatively evaluated in triplicate by the ELISA test in 96-well plates using diluted serum samples (1:80 in PBS), as previously described.[41]

[16] = tested on: T. cruzi epimastigotes, Arequipa strain; test: Screening against extracellular epimastigotes, Arequipa strain; format: cell-based, Trypanosoma cruzi
[17] = IC50 Vero cells/IC50 epimastigotes
[18] = treatment in acute phase, 15th dpi (2 days after treatment)
[19] = treatment in acute phase, necropsy day
[20] = treatment in chronic phase, 106th dpi (2 days after treatment)
[21] = treatment in chronic phase, necropsy day
[22] = IC50 Vero cells/IC50 amastigotes
[23] = IC50 Vero cells/IC50 trypomastigotes
[24] = 20 mg·kg–1 per day i.p. 5 days from 9 dpi
[25] = 20 mg·kg–1 per day i.p. 5 days from 100 dpi

## N#C[Se]c1ccc(NC(=O)c2ccco2)cc1 [Compound 28]
[1]; [17]
  Selectivity index (SI), epimastigotes, SN3 strain: 24
[1]; Trypanosoma cruzi, 48 h + 24 h resazurin, read-out: Activity IC50, epimastigote form, SN3 strain
  IC50: 3.8 ± 0.4 µM
[2]; [18]
  ALP (liver marker): + (+/-, 10-20% increase/decrease over the range)
  ALT/GPT (liver marker): ++ (++/--, 20-30% increase/decrease over the range)
  AST/GOT (liver marker): ++ (++/--, 20-30% increase/decrease over the range)
  CK-MB (heart marker): ++++ (++++/----, ˃ 40% increase/decrease over the range)
  LDH (heart marker): - (+/-, 10-20% increase/decrease over the range)
  Total bilirubin (liver marker): ++ (++/--, 20-30% increase/decrease over the range)
  Urea (kidney marker): -- (++/--, 20-30% increase/decrease over the range)
  Uric acid (kidney marker): ---- (++++/----, ˃ 40% increase/decrease over the range)
[2]; [19]
  ALP (liver marker): + (+/-, 10-20% increase/decrease over the range)
  ALT/GPT (liver marker): ++ (++/--, 20-30% increase/decrease over the range)
  AST/GOT (liver marker): + (+/-, 10-20% increase/decrease over the range)
  CK-MB (heart marker): = (=, variation ≤ 10%)
  LDH (heart marker): = (=, variation ≤ 10%)
  Total bilirubin (liver marker): = (=, variation ≤ 10%)
  Urea (kidney marker): = (=, variation ≤ 10%)
  Uric acid (kidney marker): - (+/-, 10-20% increase/decrease over the range)
[2]; [20]
  ALP (liver marker): + (+/-, 10-20% increase/decrease over the range)
  ALT/GPT (liver marker): + (+/-, 10-20% increase/decrease over the range)
  AST/GOT (liver marker): = (=, variation ≤ 10%)
  CK-MB (heart marker): ++ (++/--, 20-30% increase/decrease over the range)
  LDH (heart marker): = (=, variation ≤ 10%)
  Total bilirubin (liver marker): = (=, variation ≤ 10%)
  Urea (kidney marker): = (=, variation ≤ 10%)
  Uric acid (kidney marker): = (=, variation ≤ 10%)
[2]; [21]
  ALP (liver marker): = (=, variation ≤ 10%)
  ALT/GPT (liver marker): = (=, variation ≤ 10%)
  AST/GOT (liver marker): + (+/-, 10-20% increase/decrease over the range)
  CK-MB (heart marker): + (+/-, 10-20% increase/decrease over the range)
  LDH (heart marker): = (=, variation ≤ 10%)
  Total bilirubin (liver marker): = (=, variation ≤ 10%)
  Urea (kidney marker): = (=, variation ≤ 10%)
  Uric acid (kidney marker): = (=, variation ≤ 10%)
[3]
  CC50: 89.3 ± 7.5 µM
[4]; [22]
  selectivity index (SI), Tulahuen strain, am. forms: 33
[4]; Trypanosoma cruzi, TULAHUEN, amastigotes in Vero cells, 72 h, read-out: activity IC50, Tulahuen strain, am. forms
  IC50: 2.7 ± 0.3 µM
[5]; [23]
  selectivity index (SI), SN3 strain, trypom. forms: 53
[5]; Trypanosoma cruzi, bloodstream trypomastigotes, 24 h + 4 h resazurin, read-out: activity IC50, SN3 strain, trypom. forms
  IC50: 1.7 ± 0.2 µM
[6]; [22]
  selectivity index (SI), SN3 strain, am. forms: 53
[6]; Trypanosoma cruzi, amastigotes in Vero cells, 72 h, read-out: activity IC50, SN3 strain, am. forms
  IC50: 1.7 ± 0.4 µM
[7]
  IC50: 9.4 µM
[8]
  IC50: > 100 µM
[9]
  IC50: 19.7 µM
[10]; [17]
  Selectivity index (SI), epimastigotes, Tulahuen strain: 19
[10]; Trypanosoma cruzi, TULAHUEN, 48 h + 24 h resazurin, read-out: Activity IC50, epimastigote form, Tulahuen strain
  IC50: 4.6 ± 0.3 µM
[11]; [23]
  selectivity index (SI), Tulahuen strain, trypom. forms: 50
[11]; Trypanosoma cruzi, TULAHUEN, bloodstream trypomastigotes, 24 h + 4 h resazurin, read-out: activity IC50, Tulahuen strain, trypom. forms
  IC50: 1.8 ± 0.2 µM
[12]; [22]
  selectivity index (SI), Arequipa strain, am. forms: 28
[12]; Trypanosoma cruzi, amastigotes in Vero cells, 72 h, read-out: activity IC50, Arequipa strain, am. forms
  IC50: 3.2 ± 0.4 µM
[13]; [23]
  selectivity index (SI), Arequipa strain, trypom. forms: 50
[13]; Trypanosoma cruzi, bloodstream trypomastigotes, 24 h + 4 h resazurin, read-out: activity IC50, Arequipa strain, trypom. forms
  IC50: 1.8 ± 0.1 µM
[14]
  inhibition of nucleic acid levels: 62%
[15]; [24]
  anti-T. cruzi IgG levels (ELISA), acute phase treatment: lower IgG values than the treated with BZN at the beginning of the treatment
  splenomegaly reduction in comparison with untreated mice, acute phase treatment: 37%
[15]; 20 mg·kg–1 per day i.p. 5 days from 9 dpi, compared to untreated group
  parasitaemia reactivation after immunosuppression, acute phase treatment: approximately 95%
[15]; [25]
  anti-T. cruzi IgG levels (ELISA), chronic phase treatment: similar
  splenomegaly reduction in comparison with untreated mice, chronic phase treatment: 48%
[15]; 20 mg·kg–1 per day i.p. 5 days from 100 dpi, compared to untreated group
  parasitaemia reactivation after immunosuppression, chronic phase treatment: ~85%
[15]; 20 mg·kg–1 per day i.p. 5 days, necropsy 145 dpi
  parasite levels in target organs/tissues by PCR (in words): did not decrease enough parasite levels in the analyzed tissues
[15]; 20 mg·kg–1 per day i.p. for 5 days from 9 dpi
  parasitaemia profile during the acute phase: slight antiparasitic activity over the first month
[16]; [17]
  Selectivity index (SI), epimastigotes, Arequipa strain: 19
[16]; Trypanosoma cruzi, 48 h + 24 h resazurin, read-out: Activity IC50, epimastigote form, Arequipa strain
  IC50: 4.8 ± 0.4 µM
